Results reported in US20100286219A1, “1, 3-Dihydroimidazoles for Treating Cardiovascular Disorders” (BIAL - PORTELA & CA S.A., priority 2007, published 2010).

Experiments:
[1] = target: T1, human DβH (Homo sapiens, UniProt P09172); assay: DβH activity in SK-N-SH cells (β-hydroxylation of dopamine to noradrenaline); assay type: cell-based; settings: for DβH activity, Mean ± SEM, % of control: compound 5 μM; for inhibition of DβH activity (in words): as listed in Table 1, 5 μM; for IC50 against human DβH activity (in words): concentration-dependent decrease in β-hydroxylation of dopamine
T1 construct: endogenous in cells; host or cells: SK-N-SH cells
T1 sequence (P09172 1-617): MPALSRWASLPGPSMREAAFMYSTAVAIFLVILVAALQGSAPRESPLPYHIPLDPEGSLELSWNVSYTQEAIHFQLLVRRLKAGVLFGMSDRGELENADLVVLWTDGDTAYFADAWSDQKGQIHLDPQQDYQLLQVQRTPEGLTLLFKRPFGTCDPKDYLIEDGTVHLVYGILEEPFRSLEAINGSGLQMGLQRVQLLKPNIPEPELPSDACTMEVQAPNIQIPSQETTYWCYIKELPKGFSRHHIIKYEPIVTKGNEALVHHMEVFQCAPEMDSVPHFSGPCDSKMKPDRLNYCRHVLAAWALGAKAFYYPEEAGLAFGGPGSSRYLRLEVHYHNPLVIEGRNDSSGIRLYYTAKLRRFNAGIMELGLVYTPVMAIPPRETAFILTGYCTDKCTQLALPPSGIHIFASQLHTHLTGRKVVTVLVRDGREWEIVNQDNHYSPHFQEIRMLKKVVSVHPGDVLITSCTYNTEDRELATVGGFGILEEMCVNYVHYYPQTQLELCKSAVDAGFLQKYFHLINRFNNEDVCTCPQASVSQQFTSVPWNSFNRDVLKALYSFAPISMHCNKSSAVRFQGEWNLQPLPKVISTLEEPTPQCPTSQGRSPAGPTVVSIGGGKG

[2] = target: T2, DβH (Mus musculus, UniProt Q64237); assay: Noradrenaline tissue levels in mouse heart and brain after oral administration; assay type: in vivo
T2 construct: noradrenaline levels in the mouse left ventricle and brain parietal cortex 9 h after oral administration; from tissue; host or cells: mouse left ventricle and brain parietal cortex (in vivo)
T2 sequence (Q64237 1-622): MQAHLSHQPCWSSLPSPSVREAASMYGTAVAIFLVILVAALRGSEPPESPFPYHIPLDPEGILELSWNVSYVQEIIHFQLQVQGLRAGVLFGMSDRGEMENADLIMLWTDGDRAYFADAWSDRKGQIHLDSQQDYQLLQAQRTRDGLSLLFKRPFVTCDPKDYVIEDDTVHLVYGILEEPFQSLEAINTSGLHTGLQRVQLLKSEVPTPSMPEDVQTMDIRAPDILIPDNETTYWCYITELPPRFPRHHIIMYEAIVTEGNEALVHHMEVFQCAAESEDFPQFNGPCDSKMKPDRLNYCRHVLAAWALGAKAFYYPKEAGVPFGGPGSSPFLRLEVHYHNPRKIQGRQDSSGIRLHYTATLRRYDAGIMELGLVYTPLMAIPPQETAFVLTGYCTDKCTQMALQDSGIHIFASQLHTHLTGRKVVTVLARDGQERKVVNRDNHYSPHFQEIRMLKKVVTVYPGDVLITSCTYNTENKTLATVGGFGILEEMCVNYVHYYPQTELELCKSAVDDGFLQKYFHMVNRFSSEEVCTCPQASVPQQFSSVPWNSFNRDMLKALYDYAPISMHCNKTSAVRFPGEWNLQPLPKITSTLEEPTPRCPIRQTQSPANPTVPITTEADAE
Protocol: FIG. 1 is a graph showing the time-dependent decrease of noradrenaline levels in the left ventricle of mice treated orally with 100 mg/kg of 4 or nepicastat 1. Symbols are means of 5 determinations per group; vertical lines indicate S.E.M.
FIG. 2 is two graphs showing noradrenaline levels in the mouse left ventricle and brain parietal cortex 9 h after oral administration of 4 or nepicastat 1. Symbols are means of 5 determinations per group; vertical lines indicate S.E.M.
Time of maximum effect (Tmax) for noradrenaline tissue reduction by both 4 and 1 appears to be at 9 h post-dose (FIG. 1). Thereafter, noradrenaline tissue levels recover, reaching 50% recovery of initial tissue levels at 24 h.
For both 4 and 1, the maximal inhibitory effect was attained at a dose of 100 mg/kg.

[3] = target: T3, DβH (Rattus norvegicus, UniProt Q05754); assay: Noradrenaline tissue levels in rat heart and brain after oral administration; assay type: in vivo
T3 construct: noradrenaline levels in the rat heart (left atrium and left ventricle) and brain (frontal and parietal cortex); from tissue; host or cells: rat heart (left atrium, left ventricle) and brain (frontal and parietal cortex), in vivo
T3 sequence (Q05754 1-620): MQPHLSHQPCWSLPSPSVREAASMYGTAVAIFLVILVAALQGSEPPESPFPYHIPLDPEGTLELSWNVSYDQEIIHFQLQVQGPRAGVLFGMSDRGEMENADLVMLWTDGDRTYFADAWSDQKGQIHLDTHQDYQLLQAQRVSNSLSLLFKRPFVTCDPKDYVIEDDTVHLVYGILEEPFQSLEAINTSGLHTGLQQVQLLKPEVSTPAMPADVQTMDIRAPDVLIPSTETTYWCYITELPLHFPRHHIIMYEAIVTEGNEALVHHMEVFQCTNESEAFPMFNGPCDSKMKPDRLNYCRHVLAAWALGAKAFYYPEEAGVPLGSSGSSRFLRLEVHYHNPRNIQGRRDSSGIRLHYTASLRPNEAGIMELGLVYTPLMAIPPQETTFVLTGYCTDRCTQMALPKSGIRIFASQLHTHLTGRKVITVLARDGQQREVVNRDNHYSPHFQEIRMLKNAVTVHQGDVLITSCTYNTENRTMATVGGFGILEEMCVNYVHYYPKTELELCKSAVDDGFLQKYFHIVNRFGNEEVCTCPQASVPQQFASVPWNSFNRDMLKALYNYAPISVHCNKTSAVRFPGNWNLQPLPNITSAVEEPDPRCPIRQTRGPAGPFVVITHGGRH
Protocol: FIG. 3 is four graphs showing noradrenaline levels in the rat heart (left atrium and left ventricle) and brain (frontal and parietal cortex) 9 h after the oral administration of 4 or nepicastat 1. Columns are means of 5 determinations per group; vertical lines indicated S.E.M.

[4] = mouse, 9 h after oral administration

Structure (SMILES) | DβH activity, Mean ± SEM, % of control [1] | inhibition of DβH activity (in words) [1] | also measured
COc1ccc2c(c1)C[C@@H](n1c(CCN)c[nH]c1=S)CS2.Cl (racemic) [Compound 30, (R,S)-5-(2-aminoethyl)-1-(6-methoxythiochroman-3-yl)-1,3-dihydroimidazole-2-thione hydrochloride] | 99.4 ± 2.8 % of control | – | –
Cl.NCCc1c[nH]c(=S)n1[C@H]1CSc2ccc(O)cc2C1 (racemic) [Compound 31, (R,S)-5-(2-aminoethyl)-1-(6-hydroxythiochroman-3-yl)-1,3-dihydroimidazole-2-thione hydrochloride] | 27.3 ± 0.4 % of control | – | –
Cl.NCCc1c[nH]c(=S)n1[C@H]1CCc2c(F)cc(F)cc2C1 [Compound 2, (S)-5-(2-aminoethyl)-1-(5,7-difluoro-1,2,3,4-tetrahydronaphthalen-2-yl)-1,3-dihydroimidazole-2-thione hydrochloride] | – | markedly inhibit | IC50 against human DβH activity (in words) [1]: low nM range
Cl.NCc1c[nH]c(=S)n1[C@H]1COc2c(F)cc(F)cc2C1 [Compound 3, (R)-5-aminomethyl-1-(6,8-difluorochroman-3-yl)-1,3-dihydroimidazole-2-thione hydrochloride] | – | markedly inhibit | IC50 against human DβH activity (in words) [1]: low nM range
Cl.NCCc1c[nH]c(=S)n1[C@H]1COc2c(F)cc(F)cc2C1 [Compound 4, (R)-5-(2-aminoethyl)-1-(6,8-difluorochroman-3-yl)-1,3-dihydroimidazole-2-thione hydrochloride] | – | markedly inhibit | Time of maximum effect (Tmax) for noradrenaline tissue reduction ([2]; mouse heart (left ventricle), 100 mg/kg oral): 9 h; recovery of initial noradrenaline tissue levels ([2]; mouse heart, 100 mg/kg, at 24 h): 50%; duration of action (in words) ([2]; mouse heart, time course at 100 mg/kg): long acting; dose at which maximal inhibitory effect was attained ([2]; mouse left ventricle noradrenaline, 9 h after administration): 100 mg/kg; effect on noradrenaline levels in left ventricle [2, 4]: reduced noradrenaline levels in a dose-dependent manner; effect on noradrenaline tissue levels in brain parietal cortex [2, 4]: failed to affect; site of DβH inhibition, periphery versus brain (conclusion) ([3]; concluded from mouse and rat studies): exclusively in the periphery, being devoid of inhibitory effects in the brain; dose dependence of effect upon noradrenaline ([3]; rat (data not shown)): dependent on the dose administered; time of maximum effect upon noradrenaline ([3]; rat (data not shown)): 9 h; inhibitory effect upon noradrenaline levels in left atrium and left ventricle ([3]; rat, 100 mg/kg oral, 9 h, compared with 1 (100 mg/kg)): more pronounced than those elicited by 1; effect on noradrenaline tissue levels in brain parietal cortex and brain frontal cortex ([3]; rat, 9 h after oral administration): failed to affect; IC50 against human DβH activity (in words) [1]: low nM range
Cl.NCCCc1c[nH]c(=S)n1[C@H]1CCc2c(F)cc(F)cc2C1 [Compound 5, (S)-5-(3-aminopropyl)-1-(5,7-difluoro-1,2,3,4-tetrahydronaphthalen-2-yl)-1,3-dihydroimidazole-2-thione hydrochloride] | – | markedly inhibit | –
Cl.NCCc1c[nH]c(=S)n1[C@H]1COc2c(F)cccc2C1 [Compound 6, (R)-5-(2-aminoethyl)-1-(8-fluorochroman-3-yl)-1,3-dihydroimidazole-2-thione hydrochloride] | – | markedly inhibit | –
Cl.NCCc1c[nH]c(=S)n1[C@H]1COc2ccc(F)cc2C1 [Compound 7, (R)-5-(2-aminoethyl)-1-(6-fluorochroman-3-yl)-1,3-dihydroimidazole-2-thione hydrochloride] | 8.0 ± 0.1 % of control | markedly inhibit | –
Cl.NCCc1c[nH]c(=S)n1[C@H]1COc2cc(F)c(F)cc2C1 [Compound 8, (R)-5-(2-aminoethyl)-1-(6,7-difluorochroman-3-yl)-1,3-dihydroimidazole-2-thione hydrochloride] | – | markedly inhibit | –
Cl.NCCc1c[nH]c(=S)n1[C@H]1COc2c(cc(F)c(F)c2F)C1 [Compound 10, (R)-5-(2-aminoethyl)-1-(6,7,8-trifluorochroman-3-yl)-1,3-dihydroimidazole-2-thione hydrochloride] | – | markedly inhibit | –
Cl.NCCc1c[nH]c(=S)n1[C@H]1COc2ccccc2C1 [Compound 12, (R)-5-(2-aminoethyl)-1-chroman-3-yl-1,3-dihydroimidazole-2-thione hydrochloride] | 3.0 ± 0.5 % of control | markedly inhibit | –
Cl.NCCc1c[nH]c(=S)n1[C@H]1COc2ccc(O)cc2C1 [Compound 16, (R)-5-(2-aminoethyl)-1-(6-hydroxychroman-3-yl)-1,3-dihydroimidazole-2-thione hydrochloride] | 0.0 ± 0.6 % of control | markedly inhibit | –
COc1cccc2c1OC[C@H](n1c(CCN)c[nH]c1=S)C2.Cl [Compound 19, (R)-5-(2-aminoethyl)-1-(8-methoxychroman-3-yl)-1,3-dihydroimidazole-2-thione hydrochloride] | – | markedly inhibit | –
Cl.NCc1c[nH]c(=S)n1[C@H]1COc2ccccc2C1 [Compound 24, (R)-5-aminomethyl-1-chroman-3-yl-1,3-dihydroimidazole-2-thione hydrochloride] | 0.0 ± 1.9 % of control | markedly inhibit | –
Cl.Oc1ccc2c(c1)C[C@@H](n1c(CCNCc3ccccc3)c[nH]c1=S)CO2 [Compound 26, (R)-5-(2-Benzylaminoethyl)-1-(6-hydroxychroman-3-yl)-1,3-dihydroimidazole-2-thione hydrochloride] | – | markedly inhibit | –
CNCCc1c[nH]c(=S)n1[C@H]1COc2c(F)cc(F)cc2C1.Cl [Compound 28, (R)-1-(6,8-Difluorochroman-3-yl)-5-(2-methylaminoethyl)-1,3-dihydroimidazole-2-thione hydrochloride] | – | markedly inhibit | –
CNCCc1c[nH]c(=S)n1[C@H]1COc2ccccc2C1.Cl [Compound 29, (R)-1-Chroman-3-yl-5-(2-methylaminoethyl)-1,3-dihydroimidazole-2-thione hydrochloride] | – | markedly inhibit | –
